This note sets out measurements from ChEMBL document CHEMBL1121687, “2-Benzodioxinylaminoethanols: a new class of beta-adrenergic blocking and antihypertensive agents” (J Med Chem, 1981).

Test [1] relates to Rattus norvegicus. As to the kind of experiment: Duration of action of 5 mg/kg intravenous dose of compound was determined in SHR test for antihypertensive activity in rats. It is filed as functional.
The subject of test [2] is Rattus norvegicus. As to the kind of experiment: Change in diastolic blood pressure in anesthetized spontaneous hypertensive rats when 5 mg/kg of compound was administered intravenously. The format is functional, Artery. To be noted: route intravenous.
In test [3] the test system is Rattus norvegicus. The test is described as follows: Change in systolic blood pressure in anesthetized spontaneous hypertensive rats when 5 mg/kg of compound was administered intravenously. The format is functional, Artery. The conditions noted are these: route intravenous.
The test system of test [4] is Rattus norvegicus. As to the kind of experiment: Duration of action of 10 mg/kg intravenous dose of compound was determined in SHR test for antihypertensive activity in rats. It is filed as functional.
Another test has as its system Canis lupus familiaris. The test is described as follows: Dose required to induce at least 50% inhibition of the isoprenaline-induced effect, administered intravenously.
Test [5] relates to Rattus norvegicus. The test is described as follows: Change in systolic blood pressure in anesthetized spontaneous hypertensive rats when 10 mg/kg of compound was administered intravenously. The conditions noted are these: route intravenous. It is filed as functional, Artery.
The subject of test [6] is Rattus norvegicus. As to the kind of experiment: Change in diastolic blood pressure in anesthetized spontaneous hypertensive rats when 10 mg/kg of compound was administered intravenously. The format is functional, Artery. The conditions noted are these: route intravenous.
Test [7] deals with Beta-1 adrenergic receptor (Cavia porcellus, UniProt B0FL73). As to the kind of experiment: (§1) Antagonist activity of compound against Beta-1 adrenergic receptor in isolated guinea pig left atria. The format is functional. To be noted: read-out: pA2 app (converted).
The target of test [8] is Beta-1 adrenergic receptor (Cavia porcellus) (UniProt B0FL73). The description is as §1. It is filed as functional.
Test [9] concerns Rattus norvegicus. As to the kind of experiment: Change in systolic blood pressure in anesthetized spontaneous hypertensive rats when 2.5 mg/kg of compound was administered intravenously. To be noted: route intravenous.
The target of test [10] is Beta-2 adrenergic receptor (Cavia porcellus) (UniProt Q8K4Z4). The test is described as follows: Antagonist activity of compound against Beta-2 adrenergic receptor in isolated guinea pig trachea; Inactive at a concentration of 10e-4 M/L. It is filed as functional, tissue-based.
Test [11] deals with Rattus norvegicus. The test is described as follows: Change in diastolic blood pressure in anesthetized spontaneous hypertensive rats when 2 mg/kg of compound was administered intravenously. The format is functional, Artery. The conditions noted are these: route intravenous.
Test [12] has as its system Rattus norvegicus. The test is described as follows: Duration of action of 2 mg/kg intravenous dose of compound was determined in SHR test for antihypertensive activity in rats. It is filed as functional.
Test [13] has as its system Rattus norvegicus. As to the kind of experiment: Change in systolic blood pressure in anesthetized spontaneous hypertensive rats when 2.5 mg/kg of compound was administered intravenously. The conditions noted are these: route intravenous. This is another data set of the same source.
Test [14] concerns Rattus norvegicus. The test is described as follows: Change in diastolic blood pressure in anesthetized spontaneous hypertensive rats when 20 mg/kg of compound was administered intravenously. It is filed as functional, Artery. To be noted: route intravenous.
Test [15] has as its system Rattus norvegicus. As to the kind of experiment: Duration of action of 20 mg/kg intravenous dose of compound was determined in SHR test for antihypertensive activity in rats. The format is functional.
In test [16] the test system is Rattus norvegicus. The test is described as follows: Change in systolic blood pressure in anesthetized spontaneous hypertensive rats when 20 mg/kg of compound was administered intravenously. The format is functional, Artery. The conditions noted are these: route intravenous.
Test [17] is filed under the species Rattus norvegicus. As to the kind of experiment: Duration of action of compound was determined for antihypertensive action in rats. The format is functional.
For test [18], the system named is Beta-2 adrenergic receptor (Cavia porcellus). The test is described as follows: Antagonist activity of compound against beta-2 adrenergic receptor in isolated guinea pig trachea; Inactive at a concentration of 10e-4 M/L.
In test [19] the target is Beta-2 adrenergic receptor (Cavia porcellus) (UniProt Q8K4Z4). The test is described as follows: Antagonist activity of compound against Beta-2 adrenergic receptor in isolated guinea pig trachea; inactive. The format is functional, tissue-based.
Test [20] shares this target. The test is described as follows: Antagonist activity of compound (10e-4 mol/L) against beta 2-adrenergic receptor in isolated guinea pig trachea; Inactive at a concentration of 10e-4 M/L. The format is functional, tissue-based.

Calls of active or inactive are those of the source. No cut-off for these calls is given here.

Chain of Beta-2 adrenergic receptor (Cavia porcellus) (UniProt Q8K4Z4) (Q8K4Z4 whole entry, looked up): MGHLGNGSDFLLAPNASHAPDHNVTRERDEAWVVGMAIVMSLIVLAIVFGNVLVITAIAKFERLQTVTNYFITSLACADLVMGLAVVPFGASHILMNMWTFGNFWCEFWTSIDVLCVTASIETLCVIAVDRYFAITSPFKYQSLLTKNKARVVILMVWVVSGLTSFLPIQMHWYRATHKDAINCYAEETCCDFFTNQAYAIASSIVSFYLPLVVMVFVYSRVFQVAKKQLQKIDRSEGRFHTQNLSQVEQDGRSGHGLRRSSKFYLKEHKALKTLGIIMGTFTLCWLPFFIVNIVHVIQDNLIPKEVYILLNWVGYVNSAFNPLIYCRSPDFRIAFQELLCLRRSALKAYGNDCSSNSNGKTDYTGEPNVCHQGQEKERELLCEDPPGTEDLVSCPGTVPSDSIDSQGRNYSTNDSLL
Chain of Beta-1 adrenergic receptor (Cavia porcellus) (B0FL73 1-467): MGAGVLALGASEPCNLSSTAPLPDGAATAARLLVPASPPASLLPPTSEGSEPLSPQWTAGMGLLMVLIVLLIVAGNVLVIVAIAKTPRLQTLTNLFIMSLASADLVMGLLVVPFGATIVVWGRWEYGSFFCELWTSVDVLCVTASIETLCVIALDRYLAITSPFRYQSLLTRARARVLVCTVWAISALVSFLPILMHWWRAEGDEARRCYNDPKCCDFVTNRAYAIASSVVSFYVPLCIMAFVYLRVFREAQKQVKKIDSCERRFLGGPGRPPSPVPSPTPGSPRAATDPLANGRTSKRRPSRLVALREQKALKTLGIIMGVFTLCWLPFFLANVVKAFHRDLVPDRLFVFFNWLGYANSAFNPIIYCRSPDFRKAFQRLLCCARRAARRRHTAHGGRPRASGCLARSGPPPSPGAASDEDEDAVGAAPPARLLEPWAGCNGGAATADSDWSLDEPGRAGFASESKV
Chain of Beta-1 adrenergic receptor (B0FL73 whole entry): as the sequence (B0FL73 1-467) above

`CC(C)NCC(O)C1=COc2ccccc2O1` (stereo not given): the Duration of action with Rattus norvegicus [1] is reported as >45 min. For the same molecule, the “Change in BP” value in the test with Rattus norvegicus [2] was -60%; with Rattus norvegicus [3], -49%.
In turn, `OC(CN1CCCCCC1)C1=COc2ccccc2O1` (stereo not given) registered a Duration of action in the test on Rattus norvegicus [4] of 20 min. Also, the Dose in the test with Canis lupus familiaris amounted to 10 mg/kg. The “Change in BP” value with Rattus norvegicus [5] was -44%; in the test with Rattus norvegicus [6] it was -57%. Moreover, the Kb in [7] is 1170 nM.
Regarding `Oc1nc2ccccc2n1C1CCN(CC(O)C2=COc3ccccc3O2)CC1` (stereo not given), in test [8], the pD2 app stood at 4.89. Also, the Dose in the test on Canis lupus familiaris turned out to be 1 mg/kg. In addition, the “Change in BP” value in the test on Rattus norvegicus [9] was -38%; in the test on Rattus norvegicus [11], -43%; in the test with Rattus norvegicus [13], -38%; in the test on Rattus norvegicus [2], -43%. Moreover, in test [10], the pD2 app entry is “inactive”. Also, the Duration of action with Rattus norvegicus [1] and in the test on Rattus norvegicus [12] was >25 min throughout.
Take `OC(CN1CCCCC1)C1=COc2ccccc2O1` (stereo not given): the “Change in BP” value with Rattus norvegicus [14] is reported as -78%; with Rattus norvegicus [16], -66%. Moreover, the Duration of action in the test with Rattus norvegicus [15] is reported as 20 min. In [7], the Kb is 617 nM.
`CC(=O)Nc1ccc(OCC(O)CNC(C)C)cc1` (stereo not given) [PRACTOLOL]: in the test with Canis lupus familiaris, the Dose amounted to 2.5 mg/kg. Further, in [10], the pD2 app entry was “inactive”. Moreover, the figures for the “Change in BP” value with Rattus norvegicus [14] and in the test on Rattus norvegicus [16] were -31% and -32%, respectively. The molecule further gave a Duration of action in the test listed under Rattus norvegicus [17] of 45 min.
In the test on Rattus norvegicus [4], `CC(C)(C)NCC(O)C1=COc2ccccc2O1` (stereo not given) yielded a Duration of action of 25 min. In test [8], this molecule came in with a pD2 app of 4.8. In addition, the Dose with Canis lupus familiaris is 1 mg/kg. The “Change in BP” value in the test with Rattus norvegicus [5] is listed as -50%; in the test with Rattus norvegicus [6], -57%. Further, in test [7], the Kb is 8.51 nM.
In the test with Canis lupus familiaris, `OC(CN1CCN(c2cccc(C(F)(F)F)c2)CC1)C1=COc2ccccc2O1` (stereo not given) returned a Dose of 10 mg/kg. The “Change in BP” value with Rattus norvegicus [14] was -83%; in the test on Rattus norvegicus [16], -65%. In the test on Rattus norvegicus [15], this molecule had a Duration of action of 20 min. The pA2 app entry in [18] is “inactive”. In test [19], the pD2 app result is “inactive”.
Molecule `COc1ccc(CCNCC(O)C2=COc3ccccc3O2)cc1OC` (stereo not given) came in with a Dose in the test with Canis lupus familiaris of 1 mg/kg. The “Change in BP” value with Rattus norvegicus [9] is -33%; in the test on Rattus norvegicus [11] it was -37%. In addition, the Duration of action in the test with Rattus norvegicus [1] and in the test with Rattus norvegicus [12] was >25 min each time.
As for `CC(C)NCC(O)COc1cccc2ccccc12` (stereo not given) [PROPRANOLOL], the Dose in the test with Canis lupus familiaris worked out at 0.25 mg/kg. Moreover, the figures for the “Change in BP” value in the test with Rattus norvegicus [2] and with Rattus norvegicus [3] were -64% and -54%, respectively. The same molecule returned a Duration of action in the test filed under Rattus norvegicus [17] of 30 min.
`COc1ccccc1N1CCN(CC(O)C2=COc3ccccc3O2)CC1` (stereo not given): the pA2 app result in [20] was “inactive”. This molecule also registered a pD2 app in test [8] of 4.84. Besides, the “Change in BP” value with Rattus norvegicus [9], with Rattus norvegicus [11], in the test with Rattus norvegicus [13] and with Rattus norvegicus [2] was -41% in each case. Also, the Duration of action in the test on Rattus norvegicus [1] and in the test with Rattus norvegicus [12] was >45 min in each case.
